The target of test [1] is human recombinant FGFR2 catalytic structural domain protein (amino acids 400-821) (Homo sapiens (Human), UniProt P21802). The experiment in a line: FGFR2 activity inhibition test (HTRF kinase assay). Type of test: biochemical. Particulars: 50 μM ATP.
In test [2] the target is human recombinant FGFR3 catalytic structural domain protein (amino acids 399-806) (Homo sapiens (Human), UniProt P22607). The experiment in a line: FGFR3 activity inhibition test (HTRF kinase assay). Type of test: biochemical. The note with it: 90 μM ATP.

Molecules are shown by their SMILES. Bounds are passed on as bounds.

Sequence of human recombinant FGFR2 catalytic structural domain protein (amino acids 400-821) (P21802 400-821): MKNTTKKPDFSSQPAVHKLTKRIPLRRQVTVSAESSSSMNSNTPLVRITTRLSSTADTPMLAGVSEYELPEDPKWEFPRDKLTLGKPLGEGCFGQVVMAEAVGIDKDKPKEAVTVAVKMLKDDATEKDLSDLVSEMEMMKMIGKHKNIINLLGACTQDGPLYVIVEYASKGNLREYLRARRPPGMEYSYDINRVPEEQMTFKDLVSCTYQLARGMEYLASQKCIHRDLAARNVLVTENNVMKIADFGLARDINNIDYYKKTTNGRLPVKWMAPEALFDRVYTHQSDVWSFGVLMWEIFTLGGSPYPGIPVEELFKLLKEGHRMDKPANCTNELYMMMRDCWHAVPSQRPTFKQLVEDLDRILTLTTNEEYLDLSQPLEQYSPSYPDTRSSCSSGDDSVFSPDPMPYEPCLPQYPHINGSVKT
Sequence of human recombinant FGFR3 catalytic structural domain protein (amino acids 399-806) (P22607 399-806): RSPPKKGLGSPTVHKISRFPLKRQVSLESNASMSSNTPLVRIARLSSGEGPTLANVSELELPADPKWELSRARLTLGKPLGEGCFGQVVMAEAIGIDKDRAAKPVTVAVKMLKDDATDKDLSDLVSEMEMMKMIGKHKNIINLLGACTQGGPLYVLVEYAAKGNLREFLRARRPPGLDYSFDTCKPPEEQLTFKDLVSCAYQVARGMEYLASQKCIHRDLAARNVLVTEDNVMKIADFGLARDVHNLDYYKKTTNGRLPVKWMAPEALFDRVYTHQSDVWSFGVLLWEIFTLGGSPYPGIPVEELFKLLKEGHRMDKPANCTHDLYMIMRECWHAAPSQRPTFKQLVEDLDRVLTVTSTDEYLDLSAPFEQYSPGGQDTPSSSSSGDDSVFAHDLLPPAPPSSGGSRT

Broadly, the IC50 is the concentration needed to halve the response being measured. On to `C#CC(=O)N1CC[C@@H](c2nc(C#Cc3cc(OC)cc(OC)c3)c3c(N)nccn23)C1` (stereo in doubt) [Compound 8, 1-((3,5-Dimethoxyphenyl)ethynyl)-3-(1-propynoylpyrrolidin-3-yl)imidazo[1,5-a]pyrazin-8-amine], for which the IC50 in test [1] was below 50 nM; in test [2] it was 50 to 500 nM.
On to `CC#CC(=O)N1CC[C@@H](c2nc(C#Cc3cc(OC)cc(OC)c3)c3c(N)nccn23)C1` [Compound 5, (R)-1-((3,5-Dimethoxyphenyl)ethynyl)-3-(1-butan-2-ynoylpyrrolidin-3-yl)imidazo[1,5-a]pyrazin-8-amine], for which the half-maximal inhibitory concentration (IC50) in test [1] and in test [2] was below 50 nM throughout.
`C/C=C/C(=O)N1CC[C@@H](c2nc(C#Cc3cc(OC)cc(OC)c3)c3c(N)nccn23)C1` [Compound 7, (E)-1-((3,5-Dimethoxyphenyl)ethynyl)-3-(1-butan-2-enoylpyrrolidin-3-yl)imidazo[1,5-a]pyrazin-8-amine]: the IC50 in test [1] and in test [2] was below 50 nM each time.
Regarding `CC#CC(=O)N1CCC(c2nc(C#Cc3cc(OC)cc(OC)c3)c3c(N)nccn23)C1` (centres unmarked) [Compound 9, 1-((3,5-Dimethoxyphenyl)ethynyl)-3-(1-butan-2-ynoylpyrolidin-3-yl)imidazo[1,5-a]pyrazin-8-amine], the IC50 in test [1] was below 50 nM; in test [2] it was 50 to 500 nM.
The corresponding values for `COc1cc(C#Cc2nc(C3CCN(C(=O)/C=C/CN(C)C)C3)n3ccnc(N)c23)cc(OC)c1` (centres unmarked) [Compound 10] are below 50 nM and below 50 nM.
With `C/C=C/C(=O)N1CC(c2nc(C#Cc3cc(OC)cc(OC)c3)c3c(N)nccn23)C1` [Compound 11, (E)-1-((3,5-Dimethoxyphenyl)ethynyl)-3-(1-but-2-enoylazacyclobutan-3-yl)imidazo[1,5-a]pyrazin-8-amine], the IC50 in test [1] and in test [2] was 50 to 500 nM in each case.
Take `CC#CC(=O)N1CC(c2nc(C#Cc3cc(OC)cc(OC)c3)c3c(N)nccn23)C1` [Compound 12, 1-((3,5-Dimethoxyphenyl)ethynyl)-3-(1-but-2-ynoylazacyclobutan-3-yl)imidazo[1,5-a]pyrazin-8-amine]: the IC50 in test [1] and in test [2] was 50 to 500 nM throughout.

The values are drawn from patent US10752631B2, “Heterocyclic compounds as FGFR inhibitors” (GUANGZHOU INNOCARE PHARMA TECH CO., LTD., priority 2016, dated 2020).
